Measurements: US11883498B2, “Luteinizing hormone-releasing hormone receptor (LHRH-R) conjugates and uses thereof” (priority 2016, dated 2024)
Where two headings read alike, the source gives them in different places.

Columns and labels:
[1] = test system: SKOV3 tumors; assay: In vivo efficacy of tubulysin B hydrazide conjugate, LHRH-R negative tumors; set-up: species or system mice; settings: 2 μmol/kg i.v., 3 times per week for 3 weeks
Protocol: (§1) Tumor model and therapy: 5-6 weeks old female nu/nu athymic nude mice were subcutaneously injected with 5.0×10^6 breast cancer cells MDA-MB231 and ovarian cancer cells SKVO3 into their shoulders. Tumors were measured in two perpendicular directions 3 times per week with Vernier calipers, and their volumes were calculated as 0.5×L×W^2, where L is the longest axis (in millimeters), and W is the axis perpendicular to L (in millimeters). Treatment was initiated once the tumor volume reached ˜100 mm^3. Dosing solutions were prepared in sterile saline and injected intravenously. […] Mice were administered with the test agents 3 times per week for 3 weeks and as a measure of gross toxicity mice were simultaneously weighed at each dosing.
In vivo efficacy of tubulysin B hydrazide conjugate: To investigate the efficacy of JL tubulysin conjugate nu/nu athymic nude bearing LHRH-R positive tumors (MDA-MB-231, breast cancer) were randomly divided into three groups: saline control, targeted, and competition and were then treated with test agents 3 days per week for 3 weeks. […] The mice in control and competition group were euthanized after the last doing whereas the mice in treatment group were continuously monitored for recurrence of tumor and weight loss. […]

[2] = test system: SKOV3 cells; format: cell-based, human; settings: receptor negative cell line, 2 h exposure + 66 h
Protocol: (§2) In vitro determination of cell viability. MDA-MB231 and SKVO3 cells were seeded at a concentration of 10,000 cells per well on a 24 well plate and allowed to grow in monolayers. […] After incubating for 2 h at 37° C., cells were rinsed three times with fresh medium and then incubated in 0.5 ml fresh medium for an additional 66 h at 37° C. Sent medium was then replaced with 0.5 ml of medium containing ^3H-thymidine and incubated for additional 4 h. Cells were then again washed three times with the fresh medium and then incubated with 0.5 ml of 2.5% trichloroacetic acid for 10 min at room temperature. After removing the trichloroacetic acid, cells were dissolved in 0.25 N NaOH. Cell viability was determined by counting the incorporation of ^3H-thymidine in cells using scintillation counter (Packard, Packard Instrument Company). The IC50 value was derived from a plot of the percent of ^3H-thymidine incorporation versus log concentration using Graph Pad Prism 4.
(§3) In vitro cytotoxicity of tubulysin B hydrazide conjugate: To inspect the killing efficiency of the therapeutic conjugate, MDA-MB231 and SKOV3 cancer cells were incubated with various concentrations of JL-L3-TubBH either in the presence or absence of excess JL-L3, for 2 h at 37° C. After washing off the excess conjugate, the cells were incubated in fresh media for an additional 66 h followed by incubation with media containing ^3H-thymidine to assess cell viability. Radioactivity was counted using PerkinElmer's scintillation counter. The same procedure was repeated after exposing the cells to the free tubulysin B hydrazide.

[3] = test system: MDA-MB231 cells; format: cell-based, human; settings: 2 h exposure + 66 h
Protocol: as §2, §3

[4] = test system: MDA-MB-231 tumors; assay: In vivo efficacy of tubulysin B hydrazide conjugate, LHRH-R positive tumors; set-up: species or system mice
Protocol: as §1
In vivo efficacy of tubulysin B hydrazide conjugate: To investigate the efficacy of JL tubulysin conjugate nu/nu athymic nude bearing LHRH-R positive tumors (MDA-MB-231, breast cancer) were randomly divided into three groups: saline control, targeted, and competition and were then treated with test agents 3 days per week for 3 weeks. LHRH-R positive (MDA-MB-231) and negative (SKOV3) cancer cells were s.c implanted in to nu/nu athymic mice and treatment was initiated once the tumor volume reached ˜100 mm^3. Mice were randomized into several groups with 5 mice in each group. […] All the test agents were administered intravenously through tail vein. The mice in control and competition group were euthanized after the last doing whereas the mice in treatment group were continuously monitored for recurrence of tumor and weight loss. […] (FIG. 22A, The dotted vertical line indicates the day of final dosing (day 36)) Without intending to be bound by theory, this further confirmed that the efficacy of targeted tubulysin B hydrazide conjugate is receptor mediated. Moreover, to comprehensively test the anti-tumor efficacy of targeted conjugate (JL-L3-TubBH), mice bearing LHRH-R negative tumors (SKOV3, ovarian cancer) were divided into similar groups as MDA-MB-231 tumor bearing mice and a similar treatment regimen was followed. […] (FIGS. 22B & 22D)
After completion of the treatment the mice in MDA-MB-231 targeted group were monitored and kept on regular chow diet for next five weeks. During this time period the tumor volume and weight was monitored three time a week. (FIG. 23) Mice were treated with the LHRH-R targeted tubulysin B hydrazide conjugate (JR-L3-TubBH) for thrice a week for 3 weeks (n=5). After completion of the study tumor volume and weight of mice was continuously monitored till 75 days post tumor implantation. The dotted vertical line specifies the last day of dosing.

[5] = 2 μmol/kg i.v., 3 times per week for 3 weeks
[6] = monitored five weeks after treatment, till 75 days post tumor implantation

CCCC(=O)OCN(C(=O)[C@@H](NC(=O)C1CCCCN1C)C(C)CC)[C@H](C[C@@H](OC(C)=O)c1nc(C(=O)N[C@@H](Cc2ccc(O)cc2)C[C@H](C)C(=O)NNC(=O)OCCSSC[C@@H](NC(=O)[C@@H](CCC(=O)NC[C@H](O)[C@@H](O)[C@H](O)[C@H](O)CO)NC(=O)[C@@H](CCC(=O)O)NC(=O)[C@@H](CCC(=O)NC[C@H](O)[C@@H](O)[C@H](O)[C@H](O)CO)NC(=O)CCCCCCCNC(=O)CCc2cccc(-c3c(C)n(Cc4c(F)cccc4F)c(=O)n(C[C@@H](N)c4ccccc4)c3=O)c2)C(=O)O)cs1)C(C)C (stereo partly shown) [JL-L3-TubBH]
Body weight loss (gross toxicity) [1]: None of the mice either bearing MDA-MB-231 or SKVO3 experiences significant weight loss
Anti-tumor effect (tumor volume) ([1]; receptor negative tumors): no reduction in tumor volume
IC50 [2]: 608 nM
IC50 ([3]; 3H-thymidine incorporation, read-out: IC50): 26 nM
IC50 ([3]; excess JL-L3 (100-fold), read-out: IC50 in the presence of an excess of competition ligand): 382 nM
Anti-tumor effect (tumor volume), competition group ([4]; 2 μmol/kg i.v. with 100-fold excess of JL-L3, 3 times per week for 3 weeks): did not show any decline in tumor growth
Anti-tumor effect (tumor volume) [4, 5]: complete elimination of the tumor
Body weight loss (gross toxicity) [4, 5]: None of the mice either bearing MDA-MB-231 or SKVO3 experiences significant weight loss
Tumor growth after end of treatment [4, 6]: None of the mice showed any indication of tumor growth and weight loss
Weight loss after end of treatment [4, 6]: None of the mice showed any indication of tumor growth and weight loss
